These molecules were tested on M17—3TAU(P301L) cells (assay: Neuroblastoma tauopathy model: inhibition of TAU-induced cytotoxicity (LDH)). Details: Homo sapiens, 168 h; inhibition of TAU-induced toxicity (LDH), 7 days differentiation with retinoic acid.
Type: cell-based
Excerpt: A TAU expression plasmid was constructed by sub-cloning the cDNA encoding for human TAU-P301L protein, wherein proline at position 301 is substituted by a leucine residue, into mammalian expression vector pcDNA3.1 resulting in the plasmid pcDNA3.1-TAUP301L. Plasmids pcDNA3.1 and pcDNA3.1-TAU P301L were transfected into human neuroblastoma cells (BE-M17; ATCC No. CRL-2267™) using lipofectamine reagent and subsequently, independent clonal cell lines with the plasmids stably integrated into the genome were selected by antibiotic resistance selection (Geneticin (G418)), resulting in cell lines M17.pcDNA3 and M17—3TAUP301L. Expression of the TAUP301L gene in the M17—3TAUP301L cells was confirmed by Western blot analysis.
Differentiation of the cells with RA leads to phosphorylation and subsequent aggregation of TAU, inducing a tauopathy in these cells. Cytotoxicity of cells was measured by quantification of lactate dehydrogenase (LDH) levels. In dead cells LDH is leaked out of the cells into the medium due to a loss of plasma-membrane integrity.
Briefly, 3 days preceding the experiment pre-cultures of M17.pcDNA3 and M17—3TAU(P301L) cells were prepared, starting from a stock culture, at a density of 50.000-100.000 cells/cm2 in detection medium (Optimem Reduced Serum without phenol red (Gibco, Cat. 31985-047) supplemented with 1% fetal calf serum (FCS), 1 mM sodium pyruvate, 1× non-essential amino acids (NEAA), 500 μg/ml G418 and 0.5× antibiotic/antimycotic (ABAM)). At the day of the experiment these precultures were diluted to ˜0, 1.106 cells/ml in detection medium without FCS and 60 μL of this suspension is dispensed per well into a 96-well microtiter plate. After 3 hours of incubation at 37° C./5% CO2 an equal volume of detection medium containing 2.5 μM RA was added and subsequently incubated for 7 days at 37° C./5% CO2. After 7 days, LDH activity was determined using the Promega Cytotox 96 Non-Radioactive cytotoxicity assay (Cat. G1780), according the manufacturer's instructions. Cytotoxicity is measured as the ratio of LDH increase in the supernatant divided by the LDH increase in the total cell suspension (sum of the LDH measured in cells and supernatant).
The M17—3TAU(P301L) cell line makes it possible to assess the ability of novel compounds to inhibit TAU-induced cytotoxicity. […] Compounds were tested for their ability to hamper TAU-induced toxicity at different concentrations, ranging from low non-effective concentrations to high potent concentrations. Afterwards, the dose-dependent inhibition curve was used to calculate their EC50 (Table 1).

Cc1ccccc1CN1CCN(c2nc(-c3ccc(Cl)cc3)ns2)CC1 [Example 12, 1-[3-(4-Chloro-phenyl)-[1,2,4]thiadiazol-5-yl]-4-(2-methyl-benzyl)-piperazine] and Cc1ccc(-c2nsc(N3CCN(Cc4ccccc4C)CC3)n2)cc1 [Example 6, 1-(2-Methyl-benzyl)-4-(3-p-tolyl-[1,2,4]thiadiazol-5-yl)-piperazine] are within 1.5-fold of each other in EC50: 268 nM for the first, 278 nM for the second.

Going from N#Cc1ccc(-c2nsc(N3CCN(CCc4ccc(C(F)(F)F)cc4)CC3)n2)cc1 [Example 147, 4-(5-{4-[2-(4-Trifluoromethyl-phenyl)-ethyl]-piperazin-1-yl}-[1,2,4]thiadiazol-3-yl)-benzonitrile] to N#Cc1ccc(-c2nsc(N3CCN(CCc4ccc(F)cc4)CC3)n2)cc1 [Example 110, 4-(5-{4-[2-(4-Fluoro-phenyl)-ethyl]piperazin-1-yl}-[1,2,4]thiadiazol-3-yl)-benzonitrile], the EC50 falls from 176 nM to 17.8 nM (9.9-fold).

Going from Cc1ccc(-c2nsc(N3CCN(CCc4ccc(Cl)cc4)CC3)n2)cn1 [Example 98, 1-[2-(4-Chloro-phenyl)-ethyl]-4-[3-(6-methyl-pyridin-3-yl)-[1,2,4]thiadiazol-5-yl]-piperazine] to Fc1ccc(CCN2CCN(c3nc(-c4ccc(Cl)cc4)ns3)CC2)cc1 [Example 24, 1-[3-(4-Chloro-phenyl)-[1,2,4]thiadiazol-5-yl]-4-[2-(4-fluoro-phenyl)-ethyl]-piperazine], the EC50 falls from 80.6 nM to 0.7 nM (120-fold). The second is the more potent here.

Compared with COc1ccc(CCN2CCN(c3nc(-c4cccc(Cl)c4)ns3)CC2)cc1 [Example 41, 1-[3-(3-Chloro-phenyl)-[1,2,4]thiadiazol-5-yl]-4-[2-(4-methoxy-phenyl)-ethyl]-piperazine], COc1ccc(CCN2CCN(c3nc(-c4cccc(OC)c4)ns3)CC2)cc1 [Example 18, 1-[2-(4-Methoxy-phenyl)-ethyl]-4-[3-(3-methoxy-phenyl)[1,2,4]thiadiazol-5-yl]-piperazine] is 520-fold higher in EC50: 0.7 nM for the first, 367 nM for the second. The first is the more potent here.

Compared with COc1ccc(CCN2CCN(c3nc(-c4ccc(C#N)cc4)ns3)CC2)cc1 [Example 78, 4-(5-{4-[2-(4-Methoxy-phenyl)-ethyl]-piperazin-1-yl}-[1,2,4]thiadiazol-3-yl)-benzonitrile], COc1ccc(CCCN2CCN(c3nc(-c4ccc(Cl)cc4)ns3)CC2)cc1 [Example 52, 1-[3-(4-Chloro-phenyl)-[1,2,4]thiadiazol-5-yl]-4-[3-(4-methoxy-phenyl)-propyl]-piperazine] is 160-fold higher in EC50: 2.1 nM for the first, 327 nM for the second.

Going from Clc1cncc(-c2nsc(N3CCN(CCC4CCOCC4)CC3)n2)c1 [Example 166, 3-(5-chloropyridin-3-yl)-5-(4-(2-(tetrahydro-2H-pyran-4-yl)ethyl)piperazin-1-yl)-1,2,4-thiadiazole] to Fc1ccc(-c2nsc(N3CCN(CCC4CCOCC4)CC3)n2)cc1F [Example 164, 3-(3,4-difluorophenyl)-5-(4-(2-(tetrahydro-2H-pyran-4-yl)ethyl)piperazin-1-yl)-1,2,4-thiadiazole], the EC50 rises from 0.7 nM to 3.4 nM (4.9-fold).

Compared with Cc1ccccc1CN1CCN(c2nc(-c3cc(Cl)ccn3)ns2)CC1 [Example 128, 1-[3-(4-Chloro-pyridin-2-yl)-[1,2,4]thiadiazol-5-yl]-4-(2-methyl-benzyl)-piperazine], Cc1ccccc1CN1CCN(c2nc(-c3cccc(F)c3)ns2)CC1 [Example 99, 1-[3-(3-Fluoro-phenyl)-[1,2,4]thiadiazol-5-yl]-4-(2-methyl-benzyl)-piperazine] is 2.5-fold higher in EC50: 110 nM for the first, 271 nM for the second. The first is the more potent here.

Going from COc1cccc(CCN2CCN(c3nc(-c4ccc(C(F)(F)F)nc4)ns3)CC2)c1 [Example 30, 1-[2-(3-Methoxy-phenyl)-ethyl]-4-[3-(6-trifluoromethyl-pyridin-3-yl)-[1,2,4]thiadiazol-5-yl]-piperazine] to COc1cccc(CCN2CCN(c3nc(-c4cnccn4)ns3)CC2)c1 [Example 77, 2-(5-{4-[2-(3-Methoxy-phenyl)-ethyl]-piperazin-1-yl}-[1,2,4]thiadiazol-3-yl)-pyrazine], the EC50 rises from 147 nM to 261 nM (1.8-fold). The first is the more potent here.

Going from COc1ccc(C(C)CN2CCN(c3nc(-c4ccc(Cl)cc4)ns3)CC2)cc1 (stereo not shown) [Example 72, 1-[3-(4-Chloro-phenyl)-[1,2,4]thiadiazol-5-yl]-4-[2-(4-methoxy-phenyl)-propyl]-piperazine] to COc1cccc(C(F)CN2CCN(c3nc(-c4ccc(Cl)cc4)ns3)CC2)c1 (stereo not shown) [Example 65, 1-[3-(4-Chloro-phenyl)-[1,2,4]thiadiazol-5-yl]-4-[2-fluoro-2-(3-methoxy-phenyl)-ethyl]-piperazine], the EC50 falls from 94.3 nM to 59.9 nM (1.6-fold). The second is the more potent here.

Going from Fc1ccc(CCN2CCN(c3nc(-c4cccc(F)c4)ns3)CC2)cc1 [Example 86, 1-[2-(4-Fluoro-phenyl)-ethyl]-4-[3-(3-fluoro-phenyl)-[1,2,4]thiadiazol-5-yl]-piperazine] to Fc1ccc(CCN2CCN(c3nc(-c4cncc(Cl)c4)ns3)CC2)cc1 [Example 131, 1-[3-(5-Chloro-pyridin-3-yl)-[1,2,4]thiadiazol-5-yl]-4-[2-(4-fluoro-phenyl)-ethyl]-piperazine], the EC50 falls from 8.9 nM to 1.3 nM (6.8-fold). The second is the more potent here.

Going from Fc1ccc(-c2nsc(N3CCN(CCc4cccc(C(F)(F)F)c4)CC3)n2)cc1F [Example 158, 3-(3,4-difluorophenyl)-5-(4-(3-(trifluoromethyl)phenethyl)piperazin-1-yl)-1,2,4-thiadiazole] to Fc1ccc(CCN2CCN(c3nc(-c4ccc(Cl)cc4)ns3)CC2)cc1F [Example 134, 1-[3-(4-Chloro-phenyl)-[1,2,4]thiadiazol-5-yl]-4-[2-(3,4-difluoro-phenyl)-ethyl]-piperazine], the EC50 falls from 998 nM to 37.8 nM (26-fold).

First: COc1cc(CCN2CCN(c3nc(-c4cccc(Cl)c4)ns3)CC2)ccn1 [Example 89, 1-[3-(3-Chloro-phenyl)-[1,2,4]thiadiazol-5-yl]-4-[2-(2-methoxy-pyridin-4-yl)-ethyl]-piperazine]
Second: Clc1cccc(-c2nsc(N3CCN(CCc4ccccc4)CC3)n2)c1 [Example 82, 1-[3-(3-Chloro-phenyl)-[1,2,4]thiadiazol-5-yl]-4-phenethyl-piperazine]
The EC50 of the first is 2.5-fold lower: 1.6 nM for the first, 4 nM for the second.

Compared with Clc1ccc(CCN2CCN(c3nc(-c4cncc(Cl)c4)ns3)CC2)cc1 [Example 132, 1-[2-(4-Chloro-phenyl)-ethyl]-4-[3-(5-chloro-pyridin-3-yl)-[1,2,4]thiadiazol-5-yl]-piperazine], COc1ccc(CCN2CCN(c3nc(-c4cc(Cl)cc(Cl)c4)ns3)CC2)cc1 [Example 46, 1-[3-(3,5-Dichloro-phenyl)-[1,2,4]thiadiazol-5-yl]-4-[2-(4-methoxy-phenyl)-ethyl]-piperazine] is 9.5-fold higher in EC50: 3.3 nM for the first, 31.2 nM for the second. The first is the more potent here.

Compared with COc1cccc(CCCN2CCN(c3nc(-c4ccc(Cl)cc4)ns3)CC2)c1 [Example 32, 1-[3-(4-Chloro-phenyl)-[1,2,4]thiadiazol-5-yl]-4-[3-(3-methoxy-phenyl)-propyl]-piperazine], N#Cc1ccc(-c2nsc(N3CCN(CCc4ccccc4)CC3)n2)cc1 [Example 108, 4-[5-(4-Phenethyl-piperazin-1-yl)-[1,2,4]thiadiazol-3-yl]-benzonitrile] is 47-fold lower in EC50: 368 nM for the first, 7.9 nM for the second. The second is the more potent here.

Compared with Cc1ncc(-c2nsc(N3CCN(CCc4ccc(F)c(F)c4)CC3)n2)cn1 [Example 182, 5-(4-(3,4-difluorophenethyl)piperazin-1-yl)-3-(2-methylpyrimidin-5-yl)-1,2,4-thiadiazole], COc1ccc(CCN2CCN(c3nc(-c4cnnc(C)c4)ns3)CC2)cc1 [Example 177, 5-(4-(4-methoxyphenethyl)piperazin-1-yl)-3-(6-methylpyridazin-4-yl)-1,2,4-thiadiazole] is 190-fold lower in EC50: 192 nM for the first, 1 nM for the second. The second is the more potent here.

Compared with Fc1cccc(-c2nsc(N3CCN(CCC4CCCCC4)CC3)n2)c1 [Example 154, 1-(2-Cyclohexyl-ethyl)-4-[3-(3-fluoro-phenyl)[1,2,4]thiadiazol-5-yl]-piperazine], N#Cc1cccc(-c2nsc(N3CCN(CCc4ccccc4)CC3)n2)c1 [Example 109, 3-[5-(4-Phenethyl-piperazin-1-yl)-[1,2,4]thiadiazol-3-yl]-benzonitrile] is 5.7-fold lower in EC50: 17 nM for the first, 3 nM for the second.

Cc1cc(-c2nsc(N3CCN(CCc4ccccc4)CC3)n2)ccn1 [Example 171, 3-(2-methylpyridin-4-yl)-5-(4-phenethylpiperazin-1-yl)-1,2,4-thiadiazole] and COc1ccc(CCN2CCN(c3nc(-c4cccs4)ns3)CC2)cc1 [Example 44, 1-[2-(4-Methoxy-phenyl)-ethyl]-4-(3-thiophen-2-yl-[1,2,4]thiadiazol-5-yl)-piperazine] are within 1.5-fold of each other in EC50: 2.4 nM for the first, 2.3 nM for the second.

From US9023852B2, “1, 2, 4-thiadiazol-5-ylpiperazine derivatives useful in the treatment of neurodegenerative diseases” (Remynd NV, priority 2011, dated 2015)
